Test results as given in US20060058346A1, “Novel enantiomers of etrahydroisoquinoline derivatives and theirpharmaceutically acceptable salts, their preparations and pharmaceutical compositions” (priority 2002, published 2006).
Read-outs that look alike come from different tables or passages of the source.

Columns and labels:
[1] = tested on: Sprague-Dawley rats; assay: Acute toxicity in rat (LD50); format: in vivo; details: for LD50, Intraperitioneal injection: single intraperitoneal injection; for LD50, Intravenous injection: single intravenous injection
Experimental: (§1) Sprague-Dawley rats (six weeks) were used as test sample. Each group was comprised of two rats. […] The said emulsion was administered to two rats one times using intravenous injection and intraperitoneal injection.

[2] = tested on: RAW 264.7 macrophage cells; assay: Nitric oxide production in macrophage cell stimulated by LPS (Griess); format: cell-based; details: LPS 1 μg/ml
Experimental: RAW 264.7 macrophage cells were plated on 100 mm culture dishes at a density of 1-2×10^5 cells. Thereafter, the said macrophage cell was incubated in DMEM medium containing 10% fetal calf serum (heat-inactivated), 100 U/ml penicillin, and […] streptomycin in a CO2 incubator. The said macrophage cell was incubated therein confluently. The said incubated macrophage cells were transferred to serum-free DMEM medium, and further incubated therein for about 24 hours. Thereafter, macrophage cells were stimulated with LPS (1 μg/ml) for about 8 hours. (In this progress, experimental group was divided into two groups, group to which the compound was administered, and group to which the compound was not.) Then, nitrite quantification was achieved by performing calorimetric reaction for produced nitrite with Griess reagent and then measuring absorbance at 550 nm, while using NaNO2 as a standard.

[3] = tested on: left auricle muscle; assay: Contractile force of left auricle muscle excised from rats; parameters: species or system rat; details: vehicle control:100%
Experimental: (§2) Immediately after Sprague-Dawley rats (female or male) were anaesthetized with pentobarbital sodium (50 mg/kg, i.m.), the thorax was opened to excise the heart. The heart was submerged in Krebs solution, and left auricle muscle and right auricle muscle were then isolated. The left auricle muscle was placed in an organ bath for recording of contractile force, and applied with electrical field stimulation (voltage 10% higher than threshold voltage, 1 Hz frequency, 5 ms duration). In the case of right auricle muscle, which contracts spontaneously, the number of continuous beats was recorded. In this experiment, to measure contractile fore of the two auricle muscles, the organ bath was warmed to 37° C., and as a physiological solution, Krebs solution (119.8 mM NaCl, 4.6 mM KCl, 2.5 mM CaCl2, 1.2 mM MgCl2, 25 mM NaHCO3, 1.2 mM KH2PO4, 10 mM glucose, 1 mM EDTA, pH 7.4) was used. The Krebs solution (pH 7.4) was continuously saturated with a gas mixture of 95% O2 and 5% CO2. The auricle muscle was under a tension of 1 g, and Krebs solution was exchanged with fresh solution at intervals of 20 minutes while equilibrium was maintained during a recording period of 60 minutes.

[4] = tested on: Rat Thoracic Aortas; assay: Relaxation of rat thoracic aortas contracted by phenylephrine; details: 0.1 μM phenylephrine contraction
Experimental: Experimental group was divided into two groups, group containing endothelial cells of blood vessel and group not containing. Blood vessel of thoracic aortas was induced to contract by treatment with 0.1 μM of phenyleprine under tension of 1 g. Upon arriving at equilibrium, the enantiomers were added to an organ bath in a cumulative manner. Relaxation of thoracic aortas was recorded using a physiograph (Grass P7), calculating their response to the compounds with consideration of their added amount.

[5] = tested on: LPS-injected rat; details: from Kang et al. 1999; cited from earlier work
[6] = tested on: right auricle muscle; assay: Heart rates (beats) of right auricle muscle excised from rats; parameters: species or system rat; details: vehicle control:100%
Experimental: as §2

[7] = tested on: rat PRP; details: epinephrine; from Yun-Choi et al. 2001; read-out: IC50 platelet aggregation, epinephrine, racemic mixture; cited from earlier work
[8] = tested on: LPS-injected rat; assay: Serum/plasma level of nitrate/nitrite (NOx) in LPS-injected rat; format: in vivo; details: 10 mg/kg compound; LPS 20 mg/kg
Experimental: The rats were divided into three groups; (1) LPS-injected group (LPS was administered to abdominal cavity in an amount of 20 mg/kg), (2) enantiomer-injected group (LPS+the compounds represented by formula 3 to 8 was administered to abdominal cavity) or (3) saline solution-injected group. After administration of LPS, the rats were anaesthetized with pentobarbital. The blood was collected from rats by using heart punching. The plasma level of nitrite was measured by using the nitrate reductase derived from Aspergillus species, where the nitrate was reduced by enzyme. Particularly, the plasma was diluted with distilled water in a ratio of 1:10. Analysis buffering solution (KH2PO4 50 Mm, NADPH 0.6 Mm, FAD 5 Mm and nitrate reductase 10 U/ml, Ph 5.5) was added to the said plasma. Thereafter, the reaction was accomplished at 37° C. for 30 min. The plasma level of nitrite was measured by using sodium nitrite as a standard, and Griess solution. Standard curve to nitrite was calculated from the result derived from incubation in analysis buffering solution.

[9] = Acute toxicity in rat (LD50); format: in vivo; details: Sprague-Dawley, in vivo
Experimental: as §1

[10] = group containing endothelial cells, read-out: IC50 (E+), concentration showing relaxation response of 50%
[11] = group not containing endothelial cells, read-out: IC50 (E−), concentration showing relaxation response of 50%

Oc1ccc(CC2NCCc3cc(O)c(O)cc32)cc1 (racemic) [Racemic mixture of formula 3 and formula 4, higenamine, reference compound]
LD50, Intraperitioneal injection [1]: 280 mg/kg | LD50, Intravenous injection [1]: 98 mg/kg | NO production by LPS in macrophage cell ([2]; compound 10 μM): 21.3 µM | NO production by LPS in macrophage cell ([2]; compound 50 μM): 14.3 µM | NO production by LPS in macrophage cell ([2]; compound 100 μM): 15.2 µM | Contractile Force of Auricle Muscles ([3]; 1 × 10^−4 M): 300% | Contractile Force of Auricle Muscles ([3]; 1 × 10^−5 M): 260% | Contractile Force of Auricle Muscles ([3]; 1 × 10^−6 M): 180% | Contractile Force of Auricle Muscles ([3]; 1 × 10^−7 M): 115% | Contractile Force of Auricle Muscles ([3]; 3 × 10^−5 M): 280% | Contractile Force of Auricle Muscles ([3]; 3 × 10^−6 M): 240% | Contractile Force of Auricle Muscles ([3]; 3 × 10^−7 M): 130% | IC50 [4, 10]: 9.81 µM | IC50 [4, 11]: 5.61 µM | survival, racemic mixture [5]: 80% | Heart Rates of Auricle Muscles ([6]; 1 × 10^−4 M): 200% | Heart Rates of Auricle Muscles ([6]; 1 × 10^−5 M): 140% | Heart Rates of Auricle Muscles ([6]; 1 × 10^−6 M): 115% | Heart Rates of Auricle Muscles ([6]; 1 × 10^−7 M): 110% | Heart Rates of Auricle Muscles ([6]; 3 × 10^−5 M): 160% | Heart Rates of Auricle Muscles ([6]; 3 × 10^−6 M): 125% | Heart Rates of Auricle Muscles ([6]; 3 × 10^−7 M): 110% | IC50 [7]: 7.2 µM | plasma level of NOx [8]: 75 ± 4 µM

Oc1cc2c(cc1O)C(Cc1cccc3ccccc13)NCC2 (racemic) [Racemic mixture of formula 5 and formula 6, 1-α-naphthylmethyl-6,7-dihydroxy-1,2,3,4-tetrahydroisoquioline, reference compound]
LD50, Intraperitioneal injection [1]: 242 mg/kg | LD50, Intravenous injection [1]: 92 mg/kg | NO production by LPS in macrophage cell ([2]; compound 10 μM): 31 µM | NO production by LPS in macrophage cell ([2]; compound 50 μM): 28 µM | NO production by LPS in macrophage cell ([2]; compound 100 μM): 26 µM | Contractile Force of Auricle Muscles ([3]; 1 × 10^−4 M): 490% | Contractile Force of Auricle Muscles ([3]; 1 × 10^−5 M): 400% | Contractile Force of Auricle Muscles ([3]; 1 × 10^−6 M): 310% | Contractile Force of Auricle Muscles ([3]; 1 × 10^−7 M): 140% | Contractile Force of Auricle Muscles ([3]; 3 × 10^−5 M): 430% | Contractile Force of Auricle Muscles ([3]; 3 × 10^−6 M): 360% | Contractile Force of Auricle Muscles ([3]; 3 × 10^−7 M): 200% | IC50 [4, 10]: 0.105 µM | IC50 [4, 11]: 6.41 µM | survival, racemic mixture [5]: 90% | Heart Rates of Auricle Muscles ([6]; 1 × 10^−4 M): 135% | Heart Rates of Auricle Muscles ([6]; 1 × 10^−5 M): 130% | Heart Rates of Auricle Muscles ([6]; 1 × 10^−6 M): 120% | Heart Rates of Auricle Muscles ([6]; 1 × 10^−7 M): 115% | Heart Rates of Auricle Muscles ([6]; 3 × 10^−5 M): 130% | Heart Rates of Auricle Muscles ([6]; 3 × 10^−6 M): 120% | Heart Rates of Auricle Muscles ([6]; 3 × 10^−7 M): 115% | IC50 [7]: 1.7 µM

Oc1cc2c(cc1O)C(Cc1ccc3ccccc3c1)NCC2 (racemic) [Racemic mixture of formula 7 and formula 8, 1-β-naphthylmethyl-6,7-dihydroxy-1,2,3,4-tetrahydroisoquinoline, reference compound]
LD50 ([9]; ip, single intraperitoneal injection, read-out: LD50, Intraperitioneal injection): 220 mg/kg | LD50 ([9]; single intravenous injection, read-out: LD50, Intravenous injection): 84 mg/kg | NO production by LPS in macrophage cell ([2]; compound 10 μM): 45 µM | NO production by LPS in macrophage cell ([2]; compound 50 μM): 40 µM | NO production by LPS in macrophage cell ([2]; compound 100 μM): 39 µM | Contractile Force of Auricle Muscles ([3]; 1 × 10^−4 M): 310% | Contractile Force of Auricle Muscles ([3]; 1 × 10^−5 M): 250% | Contractile Force of Auricle Muscles ([3]; 1 × 10^−6 M): 180% | Contractile Force of Auricle Muscles ([3]; 1 × 10^−7 M): 110% | Contractile Force of Auricle Muscles ([3]; 3 × 10^−5 M): 270% | Contractile Force of Auricle Muscles ([3]; 3 × 10^−6 M): 220% | Contractile Force of Auricle Muscles ([3]; 3 × 10^−7 M): 140% | IC50 ([4]; Rattus norvegicus, Endothelial cell, group containing endothelial cells, read-out: IC50 (E+), concentration showing relaxation response of 50%): 8.75 µM | IC50 ([4]; Rattus norvegicus, Endothelial cell, group not containing endothelial cells, read-out: IC50 (E−), concentration showing relaxation response of 50%): 51.5 µM | Heart Rates of Auricle Muscles ([6]; 1 × 10^−4 M): 140% | Heart Rates of Auricle Muscles ([6]; 1 × 10^−5 M): 140% | Heart Rates of Auricle Muscles ([6]; 1 × 10^−6 M): 125% | Heart Rates of Auricle Muscles ([6]; 1 × 10^−7 M): 110% | Heart Rates of Auricle Muscles ([6]; 3 × 10^−5 M): 140% | Heart Rates of Auricle Muscles ([6]; 3 × 10^−6 M): 135% | Heart Rates of Auricle Muscles ([6]; 3 × 10^−7 M): 120% | IC50 [7]: 6.3 µM
